The results in this text go back to ChEMBL document CHEMBL1201862, “PubChem BioAssay data set” (2004).

The source made the active and inactive calls. A value given as a limit tells only on which side of the number the result lay.

Assay [1] can be described thus: inhibitors of firefly luciferase expression or activity, dose response, H4 neuroglioma cells, luminescence (AID 1990). The assay is classed as functional, cell-based.
Assay [2] is described as follows: Luminescence Cell-Based Dose Response HTS to Identify Inhibitors of 5'UTR Stem-Loop Driven Prion Protein mRNA Translation in H4 Neuroglioblastoma Cells. [Related pubchem assays: 1827 (Project Summary), 1813 (Primary HTS)]. Type of assay: functional.
For assay [3], the target named is T1, Heat shock factor protein 1 (Mus musculus, UniProt P38532).
T1 sequence (P38532 whole entry): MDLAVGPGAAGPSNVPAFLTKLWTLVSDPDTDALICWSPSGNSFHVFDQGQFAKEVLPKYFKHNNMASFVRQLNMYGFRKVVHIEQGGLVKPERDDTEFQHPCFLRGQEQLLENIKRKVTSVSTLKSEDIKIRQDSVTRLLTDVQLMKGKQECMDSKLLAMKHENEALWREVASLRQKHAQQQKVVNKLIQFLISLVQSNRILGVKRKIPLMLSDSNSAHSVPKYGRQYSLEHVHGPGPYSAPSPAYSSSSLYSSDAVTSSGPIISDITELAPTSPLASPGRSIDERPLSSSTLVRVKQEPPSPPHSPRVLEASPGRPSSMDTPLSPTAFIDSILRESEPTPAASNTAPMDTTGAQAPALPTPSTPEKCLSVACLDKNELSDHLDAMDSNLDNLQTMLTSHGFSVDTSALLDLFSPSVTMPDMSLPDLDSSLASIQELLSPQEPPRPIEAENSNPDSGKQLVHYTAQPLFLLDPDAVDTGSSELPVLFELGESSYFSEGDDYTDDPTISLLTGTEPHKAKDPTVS
As to the kind of experiment: inhibition of MG132-induced HSE-luciferase signal, confirmation, cell-based, NIH3T3, luminescence, dose retest (AID 2382).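 Note: NIH3T3 fibroblasts with HSF1-driven luciferase reporter stressed by proteasome inhibitor MG132; luminescence from HSF1-driven luciferase expression after 8 hours of MG132 stress.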 The assay is classed as functional.

A short description of assay [4]: inhibitors of SNCA 5'UTR-driven reporter translation, confirmation, H4 neuroglioma cells, luminescence (AID 1988). Type of assay: functional, cell-based.
For the next assay, the system named is Jurkat. The assay is described as follows: antigen receptor-induced NF-kB inhibitors, dose response, Jurkat, luciferase reporter, luminescence, B- and T-cell (AID 489004).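 Note: NF-kB luciferase reporter Jurkat cells stimulated with PMA plus ionomycin.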 The assay is classed as functional, cell-based. The conditions noted are these: Homo sapiens.
Assay [5] deals with Cyclin-dependent kinase 5/CDK5 activator 1 (Homo sapiens, UniProt Q00535). As to the kind of experiment: CDK5/p35 kinase inhibitors, dose response, biochemical, cherry-picked samples, set 2 (AID 504545).
The nature of assay [6]: cytotoxicity in HEK-293T NF-kB-Luc cells, dose response, cytotoxicity control for B/T-cell NF-kB inhibitor project, cell-based, uHTS hits (AID 489019).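 Note: IC50 reflects cytotoxicity as loss of cell viability.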 The assay is classed as functional.
The target of assay [7] is Latent membrane protein 1 (Human herpesvirus 4 (strain B95-8), UniProt P03230). As to the kind of experiment: TES1-eGFP NF-kB reporter inhibition versus Tet-On dsRED, dose response, selectivity assay for LMP1 NF-kB inhibitor project, imaging, HEK293T, dual-color eGFP/dsRED, cherry-picks (AID 588398). The assay is classed as functional, cell-based.
The nature of assay [8]: Shn3 3'UTR reporter inhibitors, dose response, cell-based, Clone20 osteoblasts, firefly luciferase, cherry-picked (AID 624132).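 Note: firefly luciferase luminescence from reporter carrying the Shn3 3'UTR in osteoblasts.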 The assay is classed as functional.
The nature of assay [9]: inhibitors of HIV Env-driven cell fusion, dose response, cherry-pick (AID 652057). The assay is classed as functional, cell-based.
Assay [10] can be described thus: CEM21 lymphoblast cell cytotoxicity, dose response, cytotoxicity control for viral fusion inhibitor project, CellTiter-Glo luminescence, cherry-picked (AID 652042).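 Note: potency for signal decrease meaning cytotoxicity.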 The assay is classed as functional, cell-based. (In general: Cellular ATP, detected with luciferase, serves as a proxy for viable cell number.)
Assay [11] can be described thus: ZM109 Env clade C HIV-1 fusion inhibitors, dose response, HeLa effector, CEM target cells, luciferase, cherry-pick (AID 652058). The assay is classed as functional, cell-based.
In a further assay the target is Paired box protein Pax-8 (Homo sapiens, UniProt Q06710). The assay is described as follows: inhibitors of PAX8-driven TPO luciferase reporter, dose response, RMG-I cells, cherry-pick (AID 687027).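 Note: luciferase reporter driven by Pax8 target thyroperoxidase promoter measured by SteadyGlo luminescence.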 Type of assay: functional, cell-based. For orientation: In a reporter assay the amount or activity of a reporter protein is the signal.
The nature of assay [12]: off-target signal loss in HeLa-CEM21 co-culture – HeLa F-luc CTL cells, cherry-picked, counter-screen for HIV-1 Env fusion inhibitor project, dose response (AID 652040).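 Note: potency for signal decrease marking cytotoxic or nonspecific inhibition.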 Type of assay: functional, cell-based. Background: A counterscreen serves to expose hits that act by an unwanted route or on another target.
Assay [13] can be described thus: inhibitors of clade B AD8 Env fusion, dose response, cell-based, cherry-pick (AID 652062).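 Note: luciferase signal from cell-cell fusion driven by HIV-1 clade B AD8 Env; potency is for inhibitors of fusion seen as a drop in luminescence.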 Type of assay: functional.
The nature of assay [14]: reduction of endogenous Shn3 mRNA, dose response, qPCR, Clone20 cells, cherry-pick (AID 743415). Type of assay: functional, cell-based.
Assay [15] in a line: reduction of Shn3 3'UTR firefly luciferase signal, dose response, Schnurri-3 inhibitor project, cell-based, Clone20 osteoblasts, cherry-pick, set 2 (AID 720490).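 Note: actives lower the luminescence signal as inhibitors.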 Type of assay: functional.
Assay [16] has as its target Delta-type opioid receptor (Homo sapiens, UniProt P41143). The assay is described as follows: Counterscreen for agonists of heterodimerization of the mu 1 (OPRM1) and delta 1 (OPRD1) opioid receptors: Luminescence-based cell-based high throughput dose response assay to identify agonists of OPRD1 homodimerization. [Related pubchem assays (depositor defined):AID504326, AID504355, AID504692, AID504904, AID504905]. Type of assay: functional.

A further assay concerns the target Mu-type opioid receptor (Homo sapiens, UniProt P35372). As to the kind of experiment: Counterscreen for agonists of heterodimerization of the mu 1 (OPRM1) and delta 1 (OPRD1) opioid receptors: Luminescence-based cell-based high throughput dose response assay to identify agonists of OPRM1 homodimerization. The assay is classed as functional.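 Note: U2OS cells expressing OPRM1 and beta-arrestin as split beta-galactosidase partners.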
In assay [17] the target is 5-hydroxytryptamine receptor 5A (Homo sapiens, UniProt P47898). As to the kind of experiment: Counterscreen for agonists of OPRM1-OPRD1 heterodimerization: luminescence-based cell-based high throughput dose response assay to identify agonists of 5-hydroxytryptamine (serotonin) 5A receptor (HTR5A). [Related pubchem assays (depositor defined):AID504326, AID504355, AID504692, AID504904, AID504905]. Type of assay: functional.

Assay [18] addresses 5-hydroxytryptamine receptor 1A (Homo sapiens, UniProt P08908). Type of assay: functional.
For another assay, the system named is Escherichia coli. As to the kind of experiment: microbe, parasite or virus in culture.
Assay [19] addresses Glucose-6-phosphate 1-dehydrogenase (Homo sapiens, UniProt P11413). As to the kind of experiment: human G6PD enzyme inhibitors, dose response, selectivity assay for P. falciparum G6PD inhibitor project, biochemical, fluorescence (AID 504792). Type of assay: functional.
A further assay has as its target Nonstructural protein 1 (Influenza A virus, UniProt Q194T2). Type of assay: functional, Influenza A virus (A/California/07/2009(H1N1)).
Assay [20] addresses T2, Microphthalmia-associated transcription factor (Homo sapiens, UniProt O75030).
T2 sequence (O75030 whole entry): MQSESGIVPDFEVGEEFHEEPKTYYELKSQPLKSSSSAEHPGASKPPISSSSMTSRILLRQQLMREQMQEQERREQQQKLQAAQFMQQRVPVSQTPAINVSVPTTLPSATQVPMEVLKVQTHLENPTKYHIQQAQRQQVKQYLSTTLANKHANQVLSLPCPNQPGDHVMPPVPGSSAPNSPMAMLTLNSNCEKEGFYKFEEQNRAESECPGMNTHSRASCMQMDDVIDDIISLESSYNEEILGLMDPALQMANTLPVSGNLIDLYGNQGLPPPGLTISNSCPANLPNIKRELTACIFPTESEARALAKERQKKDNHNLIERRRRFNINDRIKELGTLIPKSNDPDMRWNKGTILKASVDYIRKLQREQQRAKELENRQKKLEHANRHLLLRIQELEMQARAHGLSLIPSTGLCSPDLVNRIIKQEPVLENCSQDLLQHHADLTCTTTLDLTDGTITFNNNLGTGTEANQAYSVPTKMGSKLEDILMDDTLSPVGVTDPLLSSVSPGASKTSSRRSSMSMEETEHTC
As to the kind of experiment: TRPM1 promoter luciferase signal decrease, dose response, MITF inhibitor project, cell-based, SK-MEL-5, cherry-picked, set 3 (AID 493073).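 Note: SK-MEL-5 melanoma cells with luciferase driven by the MITF target TRPM1 promoter.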 Type of assay: functional.

Another assay relates to CHO. The assay is described as follows: cytotoxicity in TLR9-MyD88 CHO cells, dose response, cytotoxicity control for TLR9-MyD88 binding inhibitor project, cell-based, luminescence (AID 588339).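 Note: CHO cells stably coexpressing TLR9 and MyD88 fusions from primary screen; compound exposure lasted 48 hours before viability readout.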 Type of assay: functional, hamster. Conditions: Cricetulus griseus.
In the next assay the test system is HEK293. As to the kind of experiment: inhibitors of LMP1-driven NF-kB reporter, dose response, cell-based, HEK293, luciferase, cherry-pick (AID 588343). Type of assay: functional. Conditions: Homo sapiens.
The target in assay [21] is Heat shock protein HSP 90-alpha (Homo sapiens, UniProt P07900). Type of assay: functional, organism-based.
For assay [22], the system named is Vero. The assay is described as follows: cells. Type of assay: functional, cell-based. The conditions noted are these: Chlorocebus sabaeus.
The subject of assay [23] is Vero. The assay is described as follows: cells. Type of assay: functional. Conditions: Chlorocebus sabaeus.
The next assay relates to A-375. The assay is described as follows: A375 melanoma cell viability reduction, dose response, counter-screen for MITF modulator project, cherry-pick samples, set 2 (AID 540335). The assay is classed as functional, cell-based. Conditions: Homo sapiens.
In assay [24] the target is Beta-2 adrenergic receptor (Homo sapiens, UniProt P07550). As to the kind of experiment: beta2AR agonists driving receptor internalization, dose response, cell-based, FAP fluorogen, flow cytometry, cherry pick 1 (AID 588763). The assay is classed as functional.
Beta-2 adrenergic receptor, sequence (P07550 whole entry): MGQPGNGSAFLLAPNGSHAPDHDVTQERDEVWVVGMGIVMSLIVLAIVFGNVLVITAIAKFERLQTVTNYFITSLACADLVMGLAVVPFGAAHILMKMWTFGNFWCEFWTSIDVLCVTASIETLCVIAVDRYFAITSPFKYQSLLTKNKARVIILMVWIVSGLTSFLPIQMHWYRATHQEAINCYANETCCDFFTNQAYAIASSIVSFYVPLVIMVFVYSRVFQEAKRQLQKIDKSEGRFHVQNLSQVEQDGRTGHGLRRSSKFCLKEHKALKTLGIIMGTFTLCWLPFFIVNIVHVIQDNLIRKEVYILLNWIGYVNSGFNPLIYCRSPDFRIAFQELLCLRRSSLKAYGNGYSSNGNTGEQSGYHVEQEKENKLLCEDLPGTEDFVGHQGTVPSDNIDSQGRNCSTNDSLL

Latent membrane protein 1, sequence (P03230 whole entry): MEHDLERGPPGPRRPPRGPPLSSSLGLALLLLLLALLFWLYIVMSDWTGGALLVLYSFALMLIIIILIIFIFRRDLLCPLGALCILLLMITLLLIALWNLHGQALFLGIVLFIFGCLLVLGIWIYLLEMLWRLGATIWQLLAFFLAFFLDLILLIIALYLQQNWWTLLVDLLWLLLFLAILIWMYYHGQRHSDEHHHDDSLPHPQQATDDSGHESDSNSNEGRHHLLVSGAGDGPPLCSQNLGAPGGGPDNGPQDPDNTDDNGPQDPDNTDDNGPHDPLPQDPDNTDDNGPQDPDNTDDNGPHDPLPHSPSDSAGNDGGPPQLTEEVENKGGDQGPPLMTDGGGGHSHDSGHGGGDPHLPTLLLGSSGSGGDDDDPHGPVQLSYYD
Paired box protein Pax-8, sequence (Q06710 whole entry, the tested form may be a part): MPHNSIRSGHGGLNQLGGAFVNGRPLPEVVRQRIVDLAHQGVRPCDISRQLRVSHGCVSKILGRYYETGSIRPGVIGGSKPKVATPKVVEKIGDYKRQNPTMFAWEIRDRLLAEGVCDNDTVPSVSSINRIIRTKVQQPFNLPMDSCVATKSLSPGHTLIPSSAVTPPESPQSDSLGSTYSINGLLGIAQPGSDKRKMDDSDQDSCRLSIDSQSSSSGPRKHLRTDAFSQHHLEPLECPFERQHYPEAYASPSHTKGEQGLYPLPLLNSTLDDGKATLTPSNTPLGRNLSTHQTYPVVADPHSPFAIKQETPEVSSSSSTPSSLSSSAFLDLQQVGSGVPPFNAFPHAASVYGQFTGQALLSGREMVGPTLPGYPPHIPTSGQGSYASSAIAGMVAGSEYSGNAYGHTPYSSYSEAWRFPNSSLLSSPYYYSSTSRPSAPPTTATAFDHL
5-hydroxytryptamine receptor 1A, sequence (P08908 whole entry): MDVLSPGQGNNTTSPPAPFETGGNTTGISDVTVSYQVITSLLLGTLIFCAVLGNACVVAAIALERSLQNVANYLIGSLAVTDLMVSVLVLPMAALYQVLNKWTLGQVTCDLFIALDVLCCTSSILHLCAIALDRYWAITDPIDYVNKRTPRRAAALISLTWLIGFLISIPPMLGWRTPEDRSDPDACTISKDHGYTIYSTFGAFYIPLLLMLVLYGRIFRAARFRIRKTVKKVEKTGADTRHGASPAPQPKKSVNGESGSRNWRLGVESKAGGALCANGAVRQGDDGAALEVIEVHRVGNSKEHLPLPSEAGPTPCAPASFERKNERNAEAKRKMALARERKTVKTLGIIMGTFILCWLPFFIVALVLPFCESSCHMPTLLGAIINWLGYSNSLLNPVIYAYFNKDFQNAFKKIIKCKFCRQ
Nonstructural protein 1, sequence (Q194T2 whole entry): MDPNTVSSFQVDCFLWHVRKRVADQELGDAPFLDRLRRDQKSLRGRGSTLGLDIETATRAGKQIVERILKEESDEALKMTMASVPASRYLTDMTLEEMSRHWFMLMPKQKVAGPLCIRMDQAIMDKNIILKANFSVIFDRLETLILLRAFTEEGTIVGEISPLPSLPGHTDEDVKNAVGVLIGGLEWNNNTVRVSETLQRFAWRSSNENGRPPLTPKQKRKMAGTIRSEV
Cyclin-dependent kinase 5/CDK5 activator 1, sequence (Q00535 whole entry): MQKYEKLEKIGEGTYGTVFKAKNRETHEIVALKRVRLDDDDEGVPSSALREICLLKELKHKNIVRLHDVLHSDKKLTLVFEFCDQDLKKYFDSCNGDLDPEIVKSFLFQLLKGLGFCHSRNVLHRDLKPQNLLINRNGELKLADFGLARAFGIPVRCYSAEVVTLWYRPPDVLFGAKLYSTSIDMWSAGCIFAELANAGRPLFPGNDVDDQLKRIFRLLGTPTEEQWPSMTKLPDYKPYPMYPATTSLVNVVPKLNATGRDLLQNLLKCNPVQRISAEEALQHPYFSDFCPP
Cyclin-dependent kinase 5/CDK5 activator 1, sequence (Q15078 whole entry, further chain): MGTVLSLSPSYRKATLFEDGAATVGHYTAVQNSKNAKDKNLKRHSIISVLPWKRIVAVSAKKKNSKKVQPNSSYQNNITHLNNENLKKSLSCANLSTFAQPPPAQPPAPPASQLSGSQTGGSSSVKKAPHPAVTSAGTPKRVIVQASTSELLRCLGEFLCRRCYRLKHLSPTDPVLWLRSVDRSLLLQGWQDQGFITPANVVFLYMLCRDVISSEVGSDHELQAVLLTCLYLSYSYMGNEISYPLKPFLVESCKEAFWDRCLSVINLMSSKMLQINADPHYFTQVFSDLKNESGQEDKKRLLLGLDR
Delta-type opioid receptor, sequence (P41143 whole entry): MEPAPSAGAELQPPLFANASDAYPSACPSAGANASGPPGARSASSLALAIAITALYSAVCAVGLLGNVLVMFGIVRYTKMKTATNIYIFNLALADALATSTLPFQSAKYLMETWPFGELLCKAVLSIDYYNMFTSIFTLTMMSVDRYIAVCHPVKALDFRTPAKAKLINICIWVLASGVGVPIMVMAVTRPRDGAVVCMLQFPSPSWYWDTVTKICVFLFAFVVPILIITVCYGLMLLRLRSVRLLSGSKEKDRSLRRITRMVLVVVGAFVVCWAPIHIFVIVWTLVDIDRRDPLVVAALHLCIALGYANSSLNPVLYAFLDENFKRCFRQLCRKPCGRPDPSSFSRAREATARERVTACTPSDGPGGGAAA
5-hydroxytryptamine receptor 5A, sequence (P47898 whole entry): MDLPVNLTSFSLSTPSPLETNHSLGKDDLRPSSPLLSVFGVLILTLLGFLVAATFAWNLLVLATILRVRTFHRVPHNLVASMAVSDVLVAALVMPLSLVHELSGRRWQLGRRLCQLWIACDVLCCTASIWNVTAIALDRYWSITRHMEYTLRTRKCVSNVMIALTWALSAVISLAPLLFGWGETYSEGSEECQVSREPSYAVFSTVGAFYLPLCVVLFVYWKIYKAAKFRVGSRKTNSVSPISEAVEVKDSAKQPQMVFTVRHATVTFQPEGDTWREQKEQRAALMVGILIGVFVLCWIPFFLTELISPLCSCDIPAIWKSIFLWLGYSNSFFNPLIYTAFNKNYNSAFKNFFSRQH
Mu-type opioid receptor, sequence (P35372 whole entry): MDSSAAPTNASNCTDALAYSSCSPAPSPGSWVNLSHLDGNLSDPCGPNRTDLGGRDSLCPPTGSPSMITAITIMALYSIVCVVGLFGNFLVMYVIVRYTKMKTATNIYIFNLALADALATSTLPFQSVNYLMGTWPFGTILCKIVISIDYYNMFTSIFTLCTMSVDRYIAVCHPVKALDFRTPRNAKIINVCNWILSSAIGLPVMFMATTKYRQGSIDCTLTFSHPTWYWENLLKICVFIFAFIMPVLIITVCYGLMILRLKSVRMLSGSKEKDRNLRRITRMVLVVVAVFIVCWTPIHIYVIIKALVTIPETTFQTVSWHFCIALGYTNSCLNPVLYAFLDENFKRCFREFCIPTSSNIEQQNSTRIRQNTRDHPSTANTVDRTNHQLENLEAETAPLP
Glucose-6-phosphate 1-dehydrogenase, sequence (P11413 whole entry): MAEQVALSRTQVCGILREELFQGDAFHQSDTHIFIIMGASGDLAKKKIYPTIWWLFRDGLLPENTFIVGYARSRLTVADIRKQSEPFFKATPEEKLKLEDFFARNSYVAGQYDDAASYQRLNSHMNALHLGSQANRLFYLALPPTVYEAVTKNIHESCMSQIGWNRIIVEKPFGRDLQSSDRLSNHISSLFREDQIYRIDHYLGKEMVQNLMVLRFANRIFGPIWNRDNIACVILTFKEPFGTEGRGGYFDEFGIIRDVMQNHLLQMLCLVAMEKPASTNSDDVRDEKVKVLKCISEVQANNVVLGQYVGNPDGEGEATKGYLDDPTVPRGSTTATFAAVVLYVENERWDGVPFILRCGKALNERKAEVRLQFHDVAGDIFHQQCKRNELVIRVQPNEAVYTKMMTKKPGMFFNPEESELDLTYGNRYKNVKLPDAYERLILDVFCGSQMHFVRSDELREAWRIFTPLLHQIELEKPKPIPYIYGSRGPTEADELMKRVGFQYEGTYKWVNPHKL

A word on the EC50: it is the concentration needed to bring the measured effect to its halfway point. Broadly, the IC50 is the concentration that gives 50% inhibition. Broadly, the AC50 is the concentration giving half of the maximal activity seen. Turning to `OCCCNc1nccc(-c2cc(Nc3cccc(Cl)c3)ncn2)n1`, the EC50 was 2330 nM (active) in assay [1], 5300 nM (active) in assay [2], 3800 nM (active) in assay [3] and 1860 nM (active) in assay [4]. Also, the 50% inhibitory concentration (IC50) with Jurkat was 320 nM (active); in assay [6], > 80000 nM (inactive). Besides, the AC50 in assay [5] was 2960 nM (active); in assay [7], 535 nM (active); in assay [8], 2610 nM (active); in assay [9], 417 nM (active); in assay [10], 418 nM (active); in assay [11] it was < 260 nM (active). Moreover, the AC50 on Paired box protein Pax-8 was 2700 nM (active); in [12] it was 1350 nM (active); in [13], 569 nM (active); in [14], 5080 nM (active); in assay [15] it was 2710 nM (active).

For the compound `CCOC(=O)C1(c2ccccc2)CCN(CCC(=O)Nc2cccc(Br)c2)CC1`, the EC50 is 56800 nM (inactive) in [16], 40600 nM (inactive) on Mu-type opioid receptor and > 92500 nM (inactive) in assay [17].

For the compound `Cn1c(-c2ccccc2)cnc1SCc1nc(O)c2ccccc2n1`, the EC50 in assay [18] is > 50000 nM (not active). Besides, the concentration at half-maximal activity (AC50) in the assay on Escherichia coli is 234000 nM (active).

By CC50 is commonly meant the concentration giving 50% cytotoxicity. Turning to `CC(=NNC(=S)N1CCN(c2ccccn2)CC1)c1nccs1`, the IC50 was > 80000 nM (inactive) in assay [19], 3380 nM (active) at Nonstructural protein 1, 110 nM (active) in the assay with CHO and > 25000 nM (active) in the assay on Vero [22]. In addition, the AC50 in assay [20] is 681 nM (active); in the assay with HEK293 it was 4440 nM (active); in [21], 2180 nM (active); in assay [7] it was 5180 nM (active); with A-375 it was 34700 nM (active). Moreover, the CC50 in the assay on Vero [23] was 8980 nM (active).

Consider `Cc1cc(C)cc(C(=O)NC(CC(N)=O)c2ccc(N3CCN(c4ccccn4)CC3)c([N+](=O)[O-])c2)c1` (stereo not drawn), for which the EC50 in assay [24] is 714 nM (active).
